Results from patent US5849731A, “Indole derivatives and medical application thereof” (Toray Industries, Inc., priority 1995, dated 1998).

target: T1, δ-opioid (Mus musculus, UniProt P32300); assay: δ-opioid antagonism against DPDPE in mouse vas deferens (MVD); type: biochemical, mouse (male ddy strain); details: not given
T1 construct: Each of the vas deferens isolated from the mice was hung in a Magnus tube; from tissue; host or cells: isolated vas deferens of male ddy strain mice
Experimental: Using mouse vas deferens (MVD), antagonistic compounds were examined for antagonism against a δ-opioid agonist DPDPE, and agonistic compounds were examined for inhibitory activity against MVD contraction by electric stimulation, and for antagonism by a δ-opioid antagonist NTI.
Male ddy strain mice were used in this experiment. Each of the vas deferens isolated from the mice was hung in a Magnus tube which was filled with a Krebes-Henseleit solution (NaCl […]; KCl 4.7 mM; CaCl2 2.5 mM; KH2 PO4 1.1 mM; NaHCO3 25 mM; glucose 11 mM), and aerated with a gas of 5% carbon dioxide and 95% oxygen and maintained at 37° C. Electric stimulation was applied through upper and lower ring-shaped platinum electrodes at 0.1 Hz and 5.0 mS. Tissue contraction was recorded on a polygraph using an isometric transducer.
Initially, DPDPE was added in a cumulative manner to determine the IC50 value (concentration for 50% inhibition of contraction induced by electric stimulation). Next, 100 nM of a sample compound was added to the system beforehand, and 20 minutes later, DPDPE was added in a cumulative manner. According to the above procedure, the ratio of the IC50 value of DPDPE in the presence of the sample compound to that in the absence of it was determined, and the pA2 value was calculated in accordance with the Schild, et al.'s method [Schild, H. O., Br. J. Pharamacol. Chamother. 4, 277 (1949)].

T1 sequence (P32300 whole entry): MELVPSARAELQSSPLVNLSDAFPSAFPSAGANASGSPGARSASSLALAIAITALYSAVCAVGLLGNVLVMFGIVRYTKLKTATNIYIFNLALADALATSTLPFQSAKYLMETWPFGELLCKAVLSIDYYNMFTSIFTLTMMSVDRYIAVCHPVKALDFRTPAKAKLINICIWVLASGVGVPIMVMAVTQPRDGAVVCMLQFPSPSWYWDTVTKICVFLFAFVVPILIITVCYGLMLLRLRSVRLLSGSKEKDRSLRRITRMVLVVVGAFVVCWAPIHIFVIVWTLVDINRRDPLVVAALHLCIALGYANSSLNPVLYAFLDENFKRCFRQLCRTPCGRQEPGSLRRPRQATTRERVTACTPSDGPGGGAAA

Point of comparison: `Cc1cc2c3c(c1)c1c(n3CCC2)[C@@H]2Oc3c(O)ccc4c3[C@@]23CCN(CC2CC2)[C@H](C4)[C@]3(O)C1` [Compound 7, 17-cyclopropylmethyl-6,7-didehydro-4,5α-epoxy-3,14β-dihydroxy-1',7'-trimethylene-5'-methyl-6,7,2',3'-indolomorphinan], Kb 5.01 nM. Against it:
- Oc1ccc2c3c1O[C@H]1c4c(c5cc(Br)cc6c5n4CCC6)C[C@@]4(O)[C@@H](C2)N(CC2CC2)CC[C@]314 [Compound 20, 17-cyclopropylmethyl-6,7-didehydro-4,5α-epoxy-3,14β-dihydroxy-1',7'-trimethylene-5'-bromo-6,7,2',3'-indolomorphinan] — within 1.5-fold, 3.98 nM
- COc1ccc2c3c1c1c(n3CCC2)[C@@H]2Oc3c(O)ccc4c3[C@@]23CCN(CC2CC2)[C@H](C4)[C@]3(O)C1 [Compound 27, 17-cyclopropylmethyl-6,7-didehydro-4,5α-epoxy-3,14β-dihydroxy-1',7'-trimethylene-4'-methoxy-6,7,2',3'-indolomorphinan] — 2.5-fold higher, 12.6 nM
- Oc1ccc2c3c1O[C@H]1c4c(c5cc(Cl)cc6c5n4CCC6)C[C@@]4(O)[C@@H](C2)N(CC2CC2)CC[C@]314 [Compound 8, 17-cyclopropylmethyl-6,7-didehydro-4,5α-epoxy-3,14β-dihydroxy-1',7'-trimethylene-5'-chloro-6,7,2',3'-indolomorphinan] — the same, 5.01 nM
- CO[C@@]12Cc3c(n4c5c(cccc35)CCC4)[C@@H]3Oc4c(O)ccc5c4[C@@]31CCN(CC1CC1)[C@@H]2C5 [Compound 66, 17-cyclopropylmethyl-6,7-didehydro-4,5α-epoxy-3-hydroxy-14β-methoxy-1',7'-trimethylene-6,7,2',3'-indolomorphinan] — 16-fold lower, 0.316 nM
- Oc1ccc2c3c1O[C@H]1c4c(c5c(C(F)(F)F)ccc6c5n4CCC6)C[C@@]4(O)[C@@H](C2)N(CC2CC2)CC[C@]314 [Compound 24, 17-cyclopropylmethyl-6,7-didehydro-4,5α-epoxy-3,14β-dihydroxy-1',7'-trimethylene-4'-trifluoromethyl-6,7,2',3'-indolomorphinan] — 2-fold higher, 10 nM
- Oc1ccc2c3c1O[C@H]1c4c(c5cccc6c5n4CCCCC6)C[C@@]4(O)[C@@H](C2)N(CC2CC2)CC[C@]314 [Compound 21, 17-cyclopropylmethyl-6,7-didehydro-4,5α-epoxy-3,14β-dihydroxy-1',7'-pentamethylene-6,7,2',3'-indolomorphinan] — 2-fold higher, 10 nM
- CC1(C)Cc2cccc3c4c(n(c23)C1)[C@@H]1Oc2c(O)ccc3c2[C@@]12CCN(CC1CC1)[C@H](C3)[C@]2(O)C4 [Compound 26, 17-cyclopropylmethyl-6,7-didehydro-4,5α-epoxy-3,14β-dihydroxy-1',7'-(2,2-dimethylpropano)-6,7,2',3'-indolomorphinan] — 1.6-fold lower, 3.16 nM
- Oc1ccc2c3c1O[C@H]1c4c(c5cccc6c5n4CCS6)C[C@@]4(O)[C@@H](C2)N(CC2CC2)CC[C@]314 [Compound 22, 17-cyclopropylmethyl-6,7-didehydro-4,5α-epoxy-3,14β-dihydroxy-7',1'-epithioethano-6,7,2',3'-indolomorphinan] — 6.3-fold lower, 0.794 nM
- Oc1ccc2c3c1O[C@H]1c4c(c5cccc6c5n4CCO6)C[C@@]4(O)[C@@H](C2)N(CC2CC2)CC[C@]314 [Compound 23, 17-cyclopropylmethyl-6,7-didehydro-4,5α-epoxy-3,14β-dihydroxy-7',1'-epoxyethano-6,7,2',3'-indolomorphinan] — 32-fold lower, 0.158 nM
- C=CCN1CC[C@]23c4c5ccc(O)c4O[C@H]2c2c(c4cccc6c4n2CCC6)C[C@@]3(O)[C@H]1C5 [Compound 30, 17-allyl-6,7-didehydro-4,5α-epoxy-3,14β-dihydroxy-1',7'-trimethylene-6,7,2',3'-indolomorphinan] — 2.5-fold higher, 12.6 nM
- COc1cc2c3c(c1)c1c(n3CCC2)[C@@H]2Oc3c(O)ccc4c3[C@@]23CCN(CC2CC2)[C@H](C4)[C@]3(O)C1 [Compound 19, 17-cyclopropylmethyl-6,7-didehydro-4,5α-epoxy-3,14β-dihydroxy-1',7'-trimethylene-5'-methoxy-6,7,2',3'-indolomorphinan] — 5-fold lower, 1 nM

system: capsaicin-induced cough; assay: Antitussive action in rat, capsaicin-induced cough; type: in vivo; details: ip, 0.5 h, dosage for 50% cough inhibition, intraperitoneal, 10% DMSO solution, 30 minutes after administration
Experimental: Evaluation of Antitussive Action in Rat as a Model for Capsaicin-Induced Cough
Cough was induced by forcing rats to inhale capsaicin (60 μM) which was nebulized by an ultrasonic nebulizer, and fed to caps over the rats' heads through silicone tubes by a respirator. Capsaicin was fed for inhalation at a rate of 70 times/min. and 10 ml each time.
Two hundred and seventy minutes before the drug administration, capsaicin was inhaled for 5 minutes, and inducement of coughing was confirmed during this period. Thirty minutes after the drug administration, capsaicin was inhaled for 5 minutes, and the number of induced coughs during capsaicin inhalation was counted. Antitussive effect was evaluated by determining an inhibitory ratio, namely, the ratio of the number of coughs after the drug administration to that before the drug administration. Capsaicin was dissolved in saline. Each drug was dissolved in a 10% DMSO solution and intraperitoneally administered. The effect of the drug is expressed with an ED50 value which is the dosage for 50% cough inhibition

Point of comparison: `COc1ccc2c3c1O[C@H]1c4c(c5cccc6c5n4Cc4ccccc4-6)C[C@@]4(O)[C@@H](C2)N(CC2CC2)CC[C@]314` [Compound 17, 17-cyclopropylmethyl-6,7-didehydro-4,5α-epoxy-3-methoxy-14β-hydroxy-1',7'-(2",3"-benzotrimethylene)-6,7,2',3'-indolomorphinan], ED50 5.02 µg/kg. Against it:
- COc1ccc2c3c1O[C@H]1c4c(c5cc(C)cc6c5n4CCC6)C[C@@]4(O)[C@@H](C2)N(CC2CC2)CC[C@]314 [Compound 13, 17-cyclopropylmethyl-6,7-didehydro-4,5α-epoxy-3-methoxy-14β-hydroxy-1',7'-trimethylene-5'-methyl-6,7,2',3'-indolomorphinan] — within 1.5-fold, 5.33 µg/kg
- COc1ccc2c3c1O[C@H]1c4c(c5ccc6cccc7c6c5n4CC7)C[C@@]4(O)[C@@H](C2)N(CC2CC2)CC[C@]314 [Compound 42, 17-cyclopropylmethyl-6,7-didehydro-4,5α-epoxy-3-methoxy-14β-hydroxy-1',3"-ethylene-6',7'-benzo-6,7,2',3'-indolomorphinan] — 4.2-fold higher, 21.1 µg/kg
- COc1ccc2c3c1O[C@H]1c4c(c5cc(Cl)cc6c5n4CCC6)C[C@@]4(O)[C@@H](C2)N(CC2CC2)CC[C@]314 [Compound 18, 17-cyclopropylmethyl-6,7-didehydro-4,5α-epoxy-3-methoxy-14β-hydroxy-1',7'-trimethylene-5'-chloro-6,7,2',3'-indolomorphinan] — 2.7-fold higher, 13.4 µg/kg
- Cc1cc2c3c(c1)c1c(n3CCC2)[C@@H]2Oc3c(O)ccc4c3[C@@]23CCN(CC2CC2)[C@H](C4)[C@]3(O)C1 [Compound 7, 17-cyclopropylmethyl-6,7-didehydro-4,5α-epoxy-3,14β-dihydroxy-1',7'-trimethylene-5'-methyl-6,7,2',3'-indolomorphinan] — 3.2-fold higher, 16.3 µg/kg
- COc1ccc2c3c1O[C@H]1c4c(c5cc(F)cc6c5n4CCC6)C[C@@]4(O)[C@@H](C2)N(CC2CC2)CC[C@]314 [Compound 16, 17-cyclopropylmethyl-6,7-didehydro-4,5α-epoxy-3-methoxy-14β-hydroxy-1',7'-trimethylene-5'-fluoro-6,7,2',3'-indolomorphinan] — within 1.5-fold, 4.73 µg/kg
- COc1ccc2c3c1O[C@H]1c4c(c5cccc6c5n4CCC6(C)C)C[C@@]4(O)[C@@H](C2)N(CC2CC2)CC[C@]314 [Compound 40, 17-cyclopropylmethyl-6,7-didehydro-4,5α-epoxy-3-methoxy-14β-hydroxy-1',7'-(1,1-dimethylpropano)-6,7,2',3'-indolomorphinan] — 2-fold lower, 2.46 µg/kg
- COc1ccc2c3c1O[C@H]1c4c(c5c(C)ccc6c5n4CCC6)C[C@@]4(O)[C@@H](C2)N(CC2CC2)CC[C@]314 [Compound 14, 17-cyclopropylmethyl-6,7-didehydro-4,5α-epoxy-3-methoxy-14β-hydroxy-1',7'-trimethylene-4'-methyl-6,7,2',3'-indolomorphinan] — 4.7-fold higher, 23.8 µg/kg
- COc1ccc2c3c1O[C@H]1c4c(c5cccc6c5n4CCCC6)C[C@@]4(O)[C@@H](C2)N(CC2CC2)CC[C@]314 [Compound 15, 17-cyclopropylmethyl-6,7-didehydro-4,5α-epoxy-3-methoxy-14β-hydroxy-1',7'-tetramethylene-6,7,2',3'-indolomorphinan] — 1.9-fold higher, 9.68 µg/kg
- COc1ccc2c3c1O[C@H]1c4c(c5ccc(OC)c6c5n4CCC6)C[C@@]4(O)[C@@H](C2)N(CC2CC2)CC[C@]314 [Compound 12, 17-cyclopropylmethyl-6,7-didehydro-4,5α-epoxy-3,6'-dimethoxy-14β-hydroxy-1',7'-trimethylene-6,7,2',3'-indolomorphinan] — 2-fold lower, 2.5 µg/kg
- COc1ccc2c3c1O[C@H]1c4c(c5cc(Br)cc6c5n4CCC6)C[C@@]4(O)[C@@H](C2)N(CC2CC2)CC[C@]314 [Compound 35, 17-cyclopropylmethyl-6,7-didehydro-4,5α-epoxy-3-methoxy-14β-hydroxy-1',7'-trimethylene-5'-bromo-6,7,2',3'-indolomorphinan] — 4.2-fold higher, 21.2 µg/kg
- C=CCN1CC[C@]23c4c5ccc(OC)c4O[C@H]2c2c(c4cccc6c4n2CCC6)C[C@@]3(O)[C@H]1C5 [Compound 34, 17-allyl-6,7-didehydro-4,5α-epoxy-3-methoxy-14β-hydroxy-1',7'-trimethylene-6,7,2',3'-indolomorphinan] — 4.6-fold lower, 1.1 µg/kg
- COc1ccc2c3c1O[C@H]1c4c(c5c(OC)ccc6c5n4CCC6)C[C@@]4(O)[C@@H](C2)N(CC2CC2)CC[C@]314 [Compound 44, 17-cyclopropylmethyl-6,7-didehydro-4,5α-epoxy-3,4'-dimethoxy-14β-hydroxy-1',7'-trimethylene-6,7,2',3'-indolomorphinan] — 2.2-fold higher, 10.9 µg/kg
